Results as given in ChEMBL document CHEMBL2074011, “Comparison of furosemide and vinblastine secretion from cell lines overexpressing multidrug resistance protein (P-glycoprotein) and multidrug resistance-associated proteins (MRP1 and MRP2)” (Pharmacology, 2002).

Experiments:
[1] = biological target: ATP-binding cassette sub-family C member 2 (Homo sapiens, UniProt Q92887); experiment: TP_TRANSPORTER: inhibition of Vinblastine transepithelial transport (basal to apical)(Vinblastine: 0.035 uM, Sulfinpyrazone: 1000 uM) in MRP2-expressing MDCKII cells; format: functional, cell-based; conditions: dog, mdck-ii
ATP-binding cassette sub-family C member 2, sequence (Q92887 whole entry): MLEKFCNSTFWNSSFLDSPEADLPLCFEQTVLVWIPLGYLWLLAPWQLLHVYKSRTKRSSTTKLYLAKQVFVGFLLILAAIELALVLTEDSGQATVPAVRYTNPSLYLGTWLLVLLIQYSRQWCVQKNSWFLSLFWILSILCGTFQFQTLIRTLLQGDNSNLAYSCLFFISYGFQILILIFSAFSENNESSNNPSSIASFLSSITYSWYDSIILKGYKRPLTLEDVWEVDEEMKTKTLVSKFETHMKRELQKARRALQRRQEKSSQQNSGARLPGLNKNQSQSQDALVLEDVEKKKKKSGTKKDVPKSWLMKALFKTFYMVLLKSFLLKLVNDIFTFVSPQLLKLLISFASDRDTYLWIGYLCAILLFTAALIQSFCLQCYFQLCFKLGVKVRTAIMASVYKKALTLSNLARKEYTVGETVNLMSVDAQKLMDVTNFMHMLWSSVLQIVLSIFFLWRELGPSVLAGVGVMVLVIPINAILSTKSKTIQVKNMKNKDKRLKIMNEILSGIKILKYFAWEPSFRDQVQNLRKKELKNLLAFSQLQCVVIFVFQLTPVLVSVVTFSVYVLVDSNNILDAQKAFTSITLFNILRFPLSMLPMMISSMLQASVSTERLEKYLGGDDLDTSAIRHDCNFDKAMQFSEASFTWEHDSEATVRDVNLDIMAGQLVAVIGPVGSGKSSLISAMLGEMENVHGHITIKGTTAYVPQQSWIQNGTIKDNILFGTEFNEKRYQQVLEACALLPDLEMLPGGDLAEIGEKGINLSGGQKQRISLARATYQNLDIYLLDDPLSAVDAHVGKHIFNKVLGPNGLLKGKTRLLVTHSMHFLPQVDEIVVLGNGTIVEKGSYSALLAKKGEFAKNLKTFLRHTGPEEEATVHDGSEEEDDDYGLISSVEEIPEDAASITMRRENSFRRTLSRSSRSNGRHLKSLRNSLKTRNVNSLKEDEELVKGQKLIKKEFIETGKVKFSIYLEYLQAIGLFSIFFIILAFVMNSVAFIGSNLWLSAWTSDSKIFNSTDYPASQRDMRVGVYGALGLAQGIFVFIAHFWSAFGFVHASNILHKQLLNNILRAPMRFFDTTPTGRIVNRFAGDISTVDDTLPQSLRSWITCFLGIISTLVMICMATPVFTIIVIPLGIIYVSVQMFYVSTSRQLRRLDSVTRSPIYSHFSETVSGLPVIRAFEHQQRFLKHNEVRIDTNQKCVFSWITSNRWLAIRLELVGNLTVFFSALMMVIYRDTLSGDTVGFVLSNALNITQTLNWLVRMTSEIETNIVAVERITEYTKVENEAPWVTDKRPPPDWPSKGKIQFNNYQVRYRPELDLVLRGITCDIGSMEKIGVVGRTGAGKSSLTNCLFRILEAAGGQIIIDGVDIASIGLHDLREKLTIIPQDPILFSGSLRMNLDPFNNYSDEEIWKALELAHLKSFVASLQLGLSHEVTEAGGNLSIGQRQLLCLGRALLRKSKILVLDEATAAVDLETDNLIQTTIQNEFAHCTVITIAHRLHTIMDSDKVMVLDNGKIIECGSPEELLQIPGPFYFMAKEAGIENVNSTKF

[2] = biological target: Multidrug resistance-associated protein 1 (Homo sapiens, UniProt P33527); experiment: TP_TRANSPORTER: transepithelial transport (basal to apical) in MRP1-expressing LLC-PK1cell; format: functional, cell-based; conditions: pig, llc-pk1
Multidrug resistance-associated protein 1, sequence (P33527 whole entry): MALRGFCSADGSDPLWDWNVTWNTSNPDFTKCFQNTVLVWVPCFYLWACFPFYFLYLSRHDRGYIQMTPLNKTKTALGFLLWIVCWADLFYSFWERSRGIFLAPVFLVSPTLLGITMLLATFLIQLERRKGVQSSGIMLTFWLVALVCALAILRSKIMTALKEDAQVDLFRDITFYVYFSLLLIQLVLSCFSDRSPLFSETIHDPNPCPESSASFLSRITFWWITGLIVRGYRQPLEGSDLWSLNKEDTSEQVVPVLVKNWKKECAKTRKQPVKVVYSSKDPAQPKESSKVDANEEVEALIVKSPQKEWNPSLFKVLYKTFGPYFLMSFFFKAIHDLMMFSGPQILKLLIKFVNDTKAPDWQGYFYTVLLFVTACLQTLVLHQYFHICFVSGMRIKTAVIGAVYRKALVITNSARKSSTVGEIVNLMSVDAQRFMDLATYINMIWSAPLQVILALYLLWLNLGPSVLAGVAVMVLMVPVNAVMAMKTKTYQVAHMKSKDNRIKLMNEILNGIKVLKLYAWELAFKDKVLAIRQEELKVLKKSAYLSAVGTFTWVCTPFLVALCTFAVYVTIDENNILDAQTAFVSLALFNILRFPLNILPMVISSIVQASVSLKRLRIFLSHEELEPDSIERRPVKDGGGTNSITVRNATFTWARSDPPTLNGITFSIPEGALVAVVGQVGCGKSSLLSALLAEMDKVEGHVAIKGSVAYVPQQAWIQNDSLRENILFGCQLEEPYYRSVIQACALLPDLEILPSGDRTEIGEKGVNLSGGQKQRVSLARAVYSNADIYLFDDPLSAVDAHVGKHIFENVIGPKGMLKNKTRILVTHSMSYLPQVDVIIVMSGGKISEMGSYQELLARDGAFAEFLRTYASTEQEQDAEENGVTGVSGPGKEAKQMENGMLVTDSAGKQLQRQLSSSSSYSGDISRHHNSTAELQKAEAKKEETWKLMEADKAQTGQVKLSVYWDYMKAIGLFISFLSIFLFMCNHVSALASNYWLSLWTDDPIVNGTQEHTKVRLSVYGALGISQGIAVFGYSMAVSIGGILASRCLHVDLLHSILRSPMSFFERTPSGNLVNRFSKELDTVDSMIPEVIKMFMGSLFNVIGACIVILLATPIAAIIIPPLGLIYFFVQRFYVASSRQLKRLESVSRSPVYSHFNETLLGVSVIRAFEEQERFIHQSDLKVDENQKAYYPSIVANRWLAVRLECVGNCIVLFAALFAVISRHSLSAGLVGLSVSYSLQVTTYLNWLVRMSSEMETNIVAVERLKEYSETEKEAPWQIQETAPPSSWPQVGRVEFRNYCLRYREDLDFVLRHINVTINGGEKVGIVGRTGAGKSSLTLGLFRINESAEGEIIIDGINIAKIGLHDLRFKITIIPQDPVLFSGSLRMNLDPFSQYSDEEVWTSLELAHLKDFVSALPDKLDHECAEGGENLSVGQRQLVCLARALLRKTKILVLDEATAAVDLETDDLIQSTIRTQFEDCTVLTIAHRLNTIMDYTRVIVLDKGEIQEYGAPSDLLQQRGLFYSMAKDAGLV

Row | Activity [1] | Activity [2] | SMILES
1 | inhibitor [+] | – | O=C1C(CC[S+]([O-])c2ccccc2)C(=O)N(c2ccccc2)N1c1ccccc1 (configuration not stated) [SULFINPYRAZONE]
2 | – | substrate [+] | CC[C@]1(O)C[C@@H]2CN(CCc3c([nH]c4ccccc34)[C@@](C(=O)OC)(c3cc4c(cc3OC)N(C)[C@H]3[C@@](O)(C(=O)OC)[C@H](OC(C)=O)[C@]5(CC)C=CCN6CC[C@]43[C@@H]65)C2)C1 [VINBLASTINE]
